For this assay, the target named is T1, human APJ receptor (Homo sapiens, UniProt P35414).
T1 construct: expressed in transfected cells
T1 sequence (P35414 1-380): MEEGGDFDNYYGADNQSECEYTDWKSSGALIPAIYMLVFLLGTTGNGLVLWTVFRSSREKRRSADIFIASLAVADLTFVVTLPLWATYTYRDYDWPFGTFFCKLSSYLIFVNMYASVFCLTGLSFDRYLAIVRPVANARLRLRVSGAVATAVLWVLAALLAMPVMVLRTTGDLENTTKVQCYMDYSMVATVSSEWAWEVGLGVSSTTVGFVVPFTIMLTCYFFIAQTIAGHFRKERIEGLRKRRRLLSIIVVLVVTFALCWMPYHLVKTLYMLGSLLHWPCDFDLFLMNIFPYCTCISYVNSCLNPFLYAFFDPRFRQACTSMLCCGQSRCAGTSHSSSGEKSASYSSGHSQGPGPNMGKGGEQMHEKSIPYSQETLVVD
As to the kind of experiment: Intracellular cAMP accumulation assay (APJ hcAMP, HTRF). The class given is cell-based. In a few lines: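 Inhibition of 2 μM forskolin-driven cAMP ([…] present) measured by HTRF in 5,000 HEK293 cells/well stably expressing human APJ, 30 min, room temperature. EC50 came from a variable-slope sigmoidal fit; Ymax was relative to (Pyr1)apelin-13 set at 100%.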
For orientation: Cyclic AMP is a second messenger, typically raised through Gs and lowered through Gi signalling.

Where [1] appears, read: Table 1, HEK293 cells stably expressing human APJ receptor, inhibition of forskolin-mediated cAMP production, read-out: APJ hcAMP EC50.
[2] abbreviates: human APJ, cAMP, potency range class, read-out: APJ cAMP Human EC50.

Where two headings read alike, the source gives them in different places.

The source of these data is patent US11498903B2 (BRISTOL-MYERS SQUIBB COMPANY, priority 2017, dated 2022).

Usually EC50 stands for the concentration at which the effect is half-maximal. Take `CC[C@H](NC(=O)c1ccc(-c2c(Cl)cccc2-c2nc3ccccc3[nH]2)c(C(=O)O)c1)c1ccc(Cl)cc1OC` [Example 170, (S)-2′-(1H-1,3-benzodiazol-2-yl)-6′-chloro-4-{[1-(4-chloro-2-methoxyphenyl)propyl]carbamoyl}-[1,1′-biphenyl]-2-carboxylic acid]: the half-maximal effective concentration (EC50) is, setting by setting: under setting [1], less than 10 nM; under setting [2], less than 10 nM.
Take `CCC[C@H](NC(=O)c1ccc(-c2c(Cl)cccc2-c2nc3ccccc3[nH]2)c(C(=O)O)c1)c1ccccc1F` [Example 174, (S)-2′-(1H-1,3-benzodiazol-2-yl)-6′-chloro-4-{[1-(2-fluorophenyl)butyl]carbamoyl}-[1,1-biphenyl]-2-carboxylic acid]: the EC50 is less than 10 nM under setting [1] and less than 10 nM under setting [2].
Turning to `CCCC(NC(=O)c1ccc(-c2c(Cl)cccc2-c2nc3ccccc3[nH]2)c(C(=O)O)c1)c1ccc(Cl)cc1OC` [Example 179, (S)-2′-(1H-1,3-benzodiazol-2-yl)-6′-chloro-4-{[1-(4-chloro-2-methoxyphenyl)butyl]carbamoyl}-[1,1′-biphenyl]-2-carboxylic acid], the concentration giving a half-maximal response (EC50) was less than 10 nM under setting [1] and less than 10 nM under setting [2].
As for `CCCC(NC(=O)c1ccc(-c2c(Cl)cccc2-c2nc3ccccc3[nH]2)c(C(=O)O)c1)c1ccccn1` [Example 180, (S)-2′-(1H-1,3-benzodiazol-2-yl)-6′-chloro-4-{[1-(pyridin-2-yl)butyl]carbamoyl}-[1,1′-biphenyl]-2-carboxylic acid], the EC50 was less than 10 nM under setting [1] and less than 10 nM under setting [2].
Take `CCC[C@H](NC(=O)c1ccc(-c2c(Cl)cccc2-c2nc3ccccc3[nH]2)c(C(=O)O)c1)c1ccc(Cl)cc1C(F)(F)F` [Example 181, (S)-2′-(1H-1,3-benzodiazol-2-yl)-6′-chloro-4-({1-[4-chloro-2-(trifluoromethyl)phenyl]butyl}carbamoyl)-[1,1′-biphenyl]-2-carboxylic acid]: the EC50 was less than 10 nM under setting [1] and less than 10 nM under setting [2].
`CCC[C@H](NC(=O)c1ccc(-c2c(Cl)cccc2-c2nc3ccccc3[nH]2)c(C(=O)O)c1)c1ccc(Cl)cc1` [Example 187, (S)-2′-(1H-1,3-benzodiazol-2-yl)-6′-chloro-4-{[1-(4-chlorophenyl)butyl]carbamoyl}-[1,1′-biphenyl]-2-carboxylic acid]: the EC50 was less than 10 nM under setting [1] and less than 10 nM under setting [2].
For `CCC[C@H](NC(=O)c1ccc(-c2c(Cl)cccc2-c2nc3ccccc3[nH]2)c(C(=O)O)c1)c1cccnc1` [Example 190, (S)-2′-(1H-1,3-benzodiazol-2-yl)-6′-chloro-4-{[1-(pyridin-3-yl)butyl]carbamoyl}[1,1′-biphenyl]-2-carboxylic acid], the EC50 reads like this: under setting [1], 10 to 100 nM; under setting [2], 10 to 100 nM.
For the compound `CCC[C@H](NC(=O)c1ccc(-c2c(Cl)cccc2-c2nc3ccccc3[nH]2)c(C(=O)O)c1)c1cccnc1` [Example 193, (S)-2′-(1H-1,3-benzodiazol-2-yl)-6′-chloro-4-{[1-(pyridin-3-yl)butyl]carbamoyl}-[1,1′-biphenyl]-2-carboxylic acid], the EC50 under setting [1] lay within 10 to 100 nM.
As to `CCCC(NC(=O)c1ccc(-c2c(Cl)cccc2-c2nc3ccccc3[nH]2)c(C(=O)O)c1)c1cncs1` [Example 194, (S)-2′-(1H-1,3-benzodiazol-2-yl)-6′-chloro-4-{[1-(1,3-thiazol-5-yl)butyl]carbamoyl}-[1,1′-biphenyl]-2-carboxylic acid], the EC50 reads like this: under setting [1], 10 to 100 nM; under setting [2], 10 to 100 nM.
In the case of `CCC[C@H](NC(=O)c1ccc(-c2c(Cl)cccc2-c2nc3cc(Cl)c(F)cc3[nH]2)c(C(=O)O)c1)C1CCCCCC1` [Example 202, (S)-2′-chloro-6′-(5-chloro-6-fluoro-1H-1,3-benzodiazol-2-yl)-4-[(1-cycloheptylbutyl)carbamoyl]-[1,1′-biphenyl]-2-carboxylic acid], the EC50 is less than 10 nM under setting [1] and less than 10 nM under setting [2].
As for `CCCC(NC(=O)c1ccc(-c2cc(Cl)ccc2-c2nc3cc(C(C)(C)C)ccc3[nH]2)c(C(=O)OC)c1)c1ccccc1OC` (stereo not drawn) [Example 203, methyl 2′-(5-tert-butyl-1H-1,3-benzodiazol-2-yl)-5′-chloro-4-{[1-(2-methoxyphenyl)butyl]carbamoyl}-[1,1′-biphenyl]-2-carboxylate], the EC50 is, setting by setting: under setting [1], 10 to 100 nM; under setting [2], 10 to 100 nM.
In the case of `COc1cc2nc(-c3cccc(Cl)c3-c3ccc(C(=O)NC(c4ccc(Cl)cc4)C4CC4)cc3C(=O)NS(C)(=O)=O)[nH]c2cc1F` (stereo not drawn) [Example 206, 2′-chloro-N4-[(4-chlorophenyl)(cyclopropyl)methyl]-6′-(6-fluoro-5-methoxy-1H-1,3-benzodiazol-2-yl)-N2-methanesulfonyl-[1,1′-biphenyl]-2,4-dicarboxamide], the half-maximal effective concentration (EC50) reads like this: under setting [1], 10 to 100 nM; under setting [2], 10 to 100 nM.
As for `CCCC(NC(=O)c1ccc(-c2cc(Cl)ccc2-c2nc3ccccc3[nH]2)c(C(=O)O)c1)c1ccccc1OC` (stereo not drawn) [Example 207, 2′-(1H-1,3-benzodiazol-2-yl)-5′-chloro-4-{[1-(2-methoxyphenyl)butyl]carbamoyl}-[1,1′-biphenyl]-2-carboxylic acid], the EC50 under setting [1] is less than 10 nM and the EC50 under setting [2] was less than 10 nM.
On to `CCCC(NC(=O)c1ccc(-c2cc(Cl)ccc2-c2nc3ccccc3[nH]2)c(C(=O)O)c1)c1ccccc1OC` (stereo not drawn) [Example 208, 2′-(1H-1,3-benzodiazol-2-yl)-5′-chloro-4-{[1-(2-methoxyphenyl)butyl]carbamoyl}-[1,1′-biphenyl]-2-carboxylic acid], for which the EC50 under setting [1] is less than 10 nM.
Regarding `O=C(NC(CC1CCOCC1)c1ccccc1)c1ccc(-c2cc(Cl)ccc2-c2nc3ccccc3[nH]2)c(C(=O)O)c1` (stereo not drawn) [Example 216, 2′-(1H-1,3-benzodiazol-2-yl)-5′-chloro-4-{[2-(oxan-4-yl)-1-phenylethyl]carbamoyl}-[1,1′-biphenyl]-2-carboxylic acid], the EC50 reads like this: under setting [1], 101 to 500 nM; under setting [2], 101 to 500 nM.
Take `O=C(NC(CC1CCOCC1)c1ccccc1)c1ccc(-c2cc(Cl)ccc2-c2nc3ccccc3[nH]2)c(C(=O)O)c1` (stereo not drawn) [Example 217, 2′-(1H-1,3-benzodiazol-2-yl)-5′-chloro-4-{[2-(oxan-4-yl)-1-phenylethyl]carbamoyl}-[1,1′-biphenyl]-2-carboxylic acid]: under setting [1], the concentration for a half-maximal effect (EC50) fell in the range of 101 to 500 nM.
In the case of `CCCC(NC(=O)c1ccc(-c2cc(Cl)ccc2-c2nc3cc(OC)ccc3[nH]2)c(C(=O)O)c1)c1ccccc1OC` (stereo not drawn) [Example 218, 5′-chloro-2′-(5-methoxy-1H-1,3-benzodiazol-2-yl)-4-{[1-(2-methoxyphenyl)butyl]carbamoyl}-[1,1′-biphenyl]-2-carboxylic acid], the concentration for a half-maximal effect (EC50) by setting is: under setting [1], less than 10 nM; under setting [2], less than 10 nM.
In the case of `O=C(N[C@H](c1ccc(F)cc1)C1CC1)c1ccc(-c2c(Cl)cccc2-c2nc3ccccc3[nH]2)c(C(=O)O)c1` [Example 219, (S)-2′-(1H-1,3-benzodiazol-2-yl)-6′-chloro-4-{[cyclopropyl(4-fluorophenyl)methyl]carbamoyl}-[1,1′-biphenyl]-2-carboxylic acid], the half-maximal effective concentration (EC50) was less than 10 nM under setting [1] and less than 10 nM under setting [2].
As for `CCCC(NC(=O)c1ccc(-c2c(Cl)cccc2-c2nc3ccccc3[nH]2)c(C(=O)O)c1)c1ccccc1OC` [Example 225, (S)-2′-(1H-1,3-benzodiazol-2-yl)-6′-chloro-4-{[1-(2-methoxyphenyl)butyl]carbamoyl}-[1,1′-biphenyl]-2-carboxylic acid], the concentration for a half-maximal effect (EC50) was less than 10 nM under setting [1] and less than 10 nM under setting [2].
On to `O=C(N[C@@H](CCC(F)(F)F)c1ccccc1)c1ccc(-c2c(Cl)cccc2-c2nc3ccccc3[nH]2)c(C(=O)O)c1` [Example 226, (S)-2′-(1H-1,3-benzodiazol-2-yl)-6′-chloro-4-[(4,4,4-trifluoro-1-phenylbutyl)carbamoyl]-[1,1′-biphenyl]-2-carboxylic acid], for which the concentration for a half-maximal effect (EC50) was less than 10 nM under setting [1] and less than 10 nM under setting [2].
`COC[C@@H](NC(=O)c1ccc(-c2c(Cl)cccc2-c2nc3ccccc3[nH]2)c(C(=O)O)c1)C1CC1` [Example 230, (S)-2′-(1H-1,3-benzodiazol-2-yl)-6′-chloro-4-[(1-cyclopropyl-2-methoxyethyl)carbamoyl]-[1,1′-biphenyl]-2-carboxylic acid]: the EC50 by setting is: under setting [1], 101 to 500 nM; under setting [2], 101 to 500 nM.
Turning to `COc1cc2nc(-c3cccc(Cl)c3-c3ccc(C(=O)N[C@H](c4ccc(F)cc4)C4CC4)cc3C(=O)O)[nH]c2cc1F` [Example 232, (S)-2′-chloro-4-{[cyclopropyl(4-fluorophenyl)methyl]carbamoyl}-6′-(6-fluoro-5-methoxy-1H-1,3-benzodiazol-2-yl)-[1,1′-biphenyl]-2-carboxylic acid], the EC50 is, setting by setting: under setting [1], less than 10 nM; under setting [2], less than 10 nM.
On to `CCCC(NC(=O)c1ccc(-c2cc(Cl)ccc2-c2nc3cc(C(C)(C)C)ccc3[nH]2)c(C(=O)O)c1)c1ccccc1OC` (stereo not drawn) [Example 241, 2′-(5-tert-butyl-1H-1,3-benzodiazol-2-yl)-5′-chloro-4-{[1-(2-methoxyphenyl)butyl]carbamoyl}-[1,1′-biphenyl]-2-carboxylic acid], for which the EC50 by setting is: under setting [1], less than 10 nM; under setting [2], less than 10 nM.
Regarding “(S)-2′-chloro-4-{[(1R)-1-cyclohexylbutyl]carbamoyl}-6′-(6-fluoro-5-methoxy-1H-1,3-benzodiazol-2-yl)-[1,1′-biphenyl]-2-carboxylic acid [Example 160]”, the half-maximal effective concentration (EC50) is less than 10 nM under setting [1] and less than 10 nM under setting [2].
